Results taken from patent US10065990B2, “Cyclic peptide compound, and preparation method, pharmaceutical composition and use thereof” (HANGZHOU GUANYU BIO-MEDICAL CO., LTD, priority 2013, dated 2018).
Like-named read-outs stand apart in the source and are kept apart here.

Experiments:
HDAC7 = biological target: T1, HDAC7 (Homo sapiens, UniProt Q8WUI4); assay: HDAC biochemical activity measurement (fluorescent substrate deacetylation);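 as to all read-outs here: fluorogenic deacetylation assay using acetyl-lysine substrate at 20 µM, enzyme and compound incubated 30 min at 37 °C, then developer added, fluorescence read at 360/460 nm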; conditions: for IC50 HDAC7: 37° C. 30 minutes
T1 sequence (Q8WUI4 1-952): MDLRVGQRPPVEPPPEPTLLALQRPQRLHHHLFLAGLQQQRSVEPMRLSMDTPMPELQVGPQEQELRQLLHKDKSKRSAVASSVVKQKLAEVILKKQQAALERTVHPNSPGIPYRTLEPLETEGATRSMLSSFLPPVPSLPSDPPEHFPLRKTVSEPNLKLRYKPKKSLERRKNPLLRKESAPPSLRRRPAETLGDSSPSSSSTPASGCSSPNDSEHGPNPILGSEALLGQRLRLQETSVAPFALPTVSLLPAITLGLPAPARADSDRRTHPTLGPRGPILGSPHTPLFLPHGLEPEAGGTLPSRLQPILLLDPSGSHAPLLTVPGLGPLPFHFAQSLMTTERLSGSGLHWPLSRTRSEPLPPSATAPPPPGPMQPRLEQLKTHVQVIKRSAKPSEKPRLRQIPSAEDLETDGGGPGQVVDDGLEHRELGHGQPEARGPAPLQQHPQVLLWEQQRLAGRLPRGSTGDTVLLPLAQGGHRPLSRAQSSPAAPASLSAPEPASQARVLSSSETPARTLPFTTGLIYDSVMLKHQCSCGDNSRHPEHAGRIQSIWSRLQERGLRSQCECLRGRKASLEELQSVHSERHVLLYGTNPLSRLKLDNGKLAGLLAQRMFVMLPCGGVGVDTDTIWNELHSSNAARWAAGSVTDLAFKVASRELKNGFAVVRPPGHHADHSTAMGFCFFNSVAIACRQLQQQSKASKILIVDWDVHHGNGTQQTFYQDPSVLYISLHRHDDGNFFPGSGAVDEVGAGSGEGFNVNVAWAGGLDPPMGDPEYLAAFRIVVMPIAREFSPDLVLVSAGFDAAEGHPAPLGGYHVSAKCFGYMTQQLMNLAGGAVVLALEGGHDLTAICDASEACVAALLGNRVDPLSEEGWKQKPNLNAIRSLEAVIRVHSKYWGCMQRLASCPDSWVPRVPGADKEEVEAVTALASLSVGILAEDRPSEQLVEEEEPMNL

[1] = test system: DU145 (human prostate cancer cells); assay: MTT cancer cell growth inhibition; type: cell-based; conditions: Homo sapiens, DU-145, 72 h, MTT, 72 hours incubation, read-out: GI50 Du1
Procedure, shortened: (§1)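 Cells seeded at 1500/well in DMEM or RPMI 1640 with 10% FBS, incubated overnight, then exposed to compound at 10^−5 to 10^−10 M final in triplicate for 72 h at 37° C, 5% CO2. MTT added for 4 h, formazan dissolved in DMSO, absorbance read at 570 nm; GI50 derived from viability.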

[2] = test system: Bel-7402 (human hepatoma cells); assay: MTT cancer cell growth inhibition; type: cell-based; conditions: Homo sapiens, Bel-7402, 72 h, MTT, 72 hours incubation, Bel-7402 cells; read-out: GI50 Bel-7402
Procedure, shortened: as §1

[3] = test system: HCC827 (human non-small cell lung cancer cells); assay: MTT cancer cell growth inhibition; type: cell-based; conditions: Homo sapiens, HCC827, 72 h, MTT, 72 hours incubation, HCC827 cells; read-out: GI50 HCC827
Procedure, shortened: as §1

[4] = test system: A549 (human lung cancer cells); assay: MTT cancer cell growth inhibition; type: cell-based; conditions: Homo sapiens, A549, 72 h, MTT, 72 hours incubation, read-out: GI50 A54
Procedure, shortened: as §1

[5] = test system: K562 (human leukemia cells); assay: MTT cancer cell growth inhibition; type: cell-based; conditions: Homo sapiens, K562, 72 h, MTT, 72 hours incubation, K562 cells; read-out: GI50 K562
Procedure, shortened: as §1

[6] = test system: BGC-823 (human gastric cancer cells); assay: MTT cancer cell growth inhibition; type: cell-based; conditions: Homo sapiens, BGC-823, 72 h, MTT, 72 hours incubation, read-out: GI50 BG
Procedure, shortened: as §1

[7] = test system: H1975 (non-small cell lung adenocarcinoma); assay: MTT cancer cell growth inhibition; type: cell-based; conditions: Homo sapiens, NCI-H1975, 72 h, MTT, 72 hours incubation, H1975 cells; read-out: GI50 H1975
Procedure, shortened: as §1

[8] = test system: MOLT-4 (human acute lymphoblastic leukemia cells); assay: MTT cancer cell growth inhibition; type: cell-based; conditions: Homo sapiens, MOLT-4, 72 h, MTT, 72 hours incubation, read-out: GI50 Mol
Procedure, shortened: as §1

[9] = test system: PANC-1 (Pac-1, human pancreatic cancer cells); assay: MTT cancer cell growth inhibition; type: cell-based; conditions: Homo sapiens, PANC-1, 72 h, MTT, 72 hours incubation, read-out: GI50 PAN
Procedure, shortened: as §1

[10] = test system: lncap (prostate cancer cells); assay: MTT cancer cell growth inhibition; type: cell-based; conditions: Homo sapiens, LNCaP, 72 h, MTT, 72 hours incubation, read-out: GI50 lnca
Procedure, shortened: as §1

[11] = test system: SGC-7901 (human gastric cancer cells); assay: MTT cancer cell growth inhibition; type: cell-based; conditions: Homo sapiens, SGC-7901, 72 h, MTT, 72 hours incubation, SGC-7901 cells; read-out: GI50 SGC-7901
Procedure, shortened: as §1

[12] = test system: MCF-7 (human breast cancer cells); assay: MTT cancer cell growth inhibition; type: cell-based; conditions: Homo sapiens, MCF7, 72 h, 72 hours incubation, read-out: GI50 MCF
Procedure, shortened: as §1

[13] = test system: KBM-5 (human chronic myelogenous leukemia); assay: MTT cancer cell growth inhibition; type: cell-based; conditions: Homo sapiens, KBM5, 72 h, MTT, 72 hours incubation, KBM-5 cells; read-out: GI50 KBM-5
Procedure, shortened: as §1

[14] = test system: N-87 (human gastric cancer cells); assay: MTT cancer cell growth inhibition; type: cell-based; conditions: Homo sapiens, 72 h, MTT, 72 hours incubation, N-87 cells; read-out: GI50 N-87
Procedure, shortened: as §1

[15] = test system: Huh-7 (human hepatoma cells); assay: MTT cancer cell growth inhibition; type: cell-based; conditions: Homo sapiens, Huh-7, 72 h, MTT, 72 hours incubation, Huh-7 cells; read-out: GI50 Huh-7
Procedure, shortened: as §1

[16] = test system: MDA-MB-231 (breast cancer cells); assay: MTT cancer cell growth inhibition; type: cell-based; conditions: Homo sapiens, MDA-MB-231, 72 h, read-out: GI50 MDA-MB-231, MTT, 72 hours incubation, MDA-MB-231 cells
Procedure, shortened: as §1

[17] = test system: HT1080 (human fibrosarcoma cells); assay: MTT cancer cell growth inhibition; type: cell-based; conditions: Homo sapiens, HT-1080, 72 h, MTT, 72 hours incubation, read-out: GI50 HT1
Procedure, shortened: as §1

[18] = test system: U937 (human leukemia cells); assay: MTT cancer cell growth inhibition; type: cell-based; conditions: Homo sapiens, U-937, 72 h, MTT, 72 hours incubation, read-out: GI50 U93
Procedure, shortened: as §1

[19] = test system: Hela (human cervical cancer cells); assay: MTT cancer cell growth inhibition; type: cell-based; conditions: Homo sapiens, HeLa, 72 h, MTT, 72 hours incubation, read-out: GI50 Hela
Procedure, shortened: as §1

[20] = test system: KBM5-T315I (human chronic myelogenous leukemia); assay: MTT cancer cell growth inhibition; type: cell-based; conditions: Homo sapiens, 72 h, MTT, 72 hours incubation, KBM5-T315I cells; read-out: GI50 KBM5-T315I
Procedure, shortened: as §1

Row | IC50 HDAC7 (HDAC7) | GI50 ([1]; DU145 cells) | GI50 [2] | GI50 [3] | GI50 ([4]; A549 cells) | GI50 [5] | GI50 ([6]; BGC-823 cells) | GI50 [7] | GI50 ([8]; MOLT-4 cells) | GI50 ([9]; PANC-1 cells) | GI50 ([10]; lncap cells) | GI50 [11] | GI50 ([12]; MCF-7 cells) | GI50 [13] | GI50 [14] | GI50 [15] | GI50 [16] | GI50 ([17]; HT1080 cells) | GI50 ([18]; U937 cells) | GI50 [20] | Structure (SMILES) | also measured
1 | no activity | 20 nM | 28 nM | 56 nM | 20 nM | 63 nM | 50 nM | 23 nM | 70 nM | 60 nM | 30 nM | 86 nM | 30 nM | 57 nM | 48 nM | 75 nM | 67 nM | 20 nM | 50 nM | 17 nM | C/C=C1\NC(=O)c2cc(SC)cc(n2)CNC(=O)C[C@@H](/C=C/CCSC(=O)CCCCCCC)OC(=O)[C@H](Cc2ccccc2)NC1=O [Compound 190] | GI50 ([19]; Hela cells): 60 nM
2 | no activity |  | 29 nM | 35 nM |  | 38 nM |  | 54 nM |  |  |  | 27 nM |  | 31 nM | 41 nM | 92 nM | 63 nM |  |  | 61 nM | C=C1NC(=O)c2ccc(F)c(n2)CNC(=O)C[C@@H](/C=C/CCS)OC(=O)[C@H](C(C)C)NC1=O [Compound 134] | GI50 [1]: 50 nM; GI50 [4]: 30 nM; GI50 [6]: 170 nM; GI50 [8]: 50 nM; GI50 [9]: 130 nM; GI50 [10]: 100 nM; GI50 [12]: 80 nM; GI50 [17]: 70 nM; GI50 [18]: 50 nM; GI50 [19]: 40 nM
3 | no activity | 40 nM | 23 nM | 23 nM | 30 nM | 35 nM | 80 nM | 65 nM | 30 nM | 30 nM | 30 nM | 43 nM | 40 nM | 53 nM | 77 nM | 22 nM | 73 nM | 60 nM | 20 nM | 26 nM | C/C=C1\NC(=O)c2ccc(SC)c(n2)CNC(=O)C[C@@H](/C=C/CCSC(C)=O)OC(=O)[C@H](Cc2ccc(O)cc2)NC1=O [Compound 203] | GI50 ([19]; Hela cells): 30 nM
4 |  | 30 nM | 41 nM | 23 nM | 50 nM | 72 nM | 30 nM | 76 nM | 50 nM | 20 nM | 40 nM | 33 nM | 70 nM | 47 nM | 45 nM | 43 nM | 29 nM | 40 nM | 70 nM | 27 nM | C/C=C1\NC(=O)c2ccc(SCC)c(n2)CNC(=O)C[C@@H](/C=C/CCSC(=O)CCCCCCC)OC(=O)[C@H](C(C)C)NC1=O [Compound 249] | IC50 (μM) HDAC7 (HDAC7): no activity; GI50 ([19]; Hela cells): 80 nM
5 | no activity | 20 nM | 43 nM | 96 nM | 60 nM | 37 nM | 20 nM | 26 nM | 30 nM | 50 nM | 70 nM | 37 nM | 60 nM | 49 nM | 62 nM | 88 nM | 38 nM | 50 nM | 90 nM | 57 nM | C/C=C1\NC(=O)c2ccc(SC)c(n2)CNC(=O)C[C@@H](/C=C/CCSC=O)OC(=O)[C@H](C(C)C)NC1=O [Compound 170] | GI50 ([19]; Hela cells): 30 nM
6 | no activity | 30 nM | 27 nM | 35 nM | 30 nM | 29 nM | 50 nM | 23 nM | 30 nM | 40 nM | 20 nM | 43 nM | 40 nM | 51 nM | 36 nM | 84 nM | 27 nM | 10 nM | 60 nM | 25 nM | C/C=C1\NC(=O)c2ccc(SC)c(n2)CNC(=O)C[C@@H](/C=C/CCSC(C)=O)OC(=O)[C@H](CCCCN)NC1=O [Compound 194] | GI50 ([19]; Hela cells): 50 nM
7 | no activity |  | 42 nM | 71 nM |  | 38 nM |  | 32 nM |  |  |  | 43 nM |  | 99 nM | 11 nM | 54 nM | 22 nM |  |  | 28 nM | C/C=C1\NC(=O)c2ccc(F)c(n2)CNC(=O)C[C@@H](/C=C/CCS)OC(=O)[C@H](C)NC1=O [Compound 114] | GI50 [1]: 60 nM; GI50 [4]: 30 nM; GI50 [6]: 60 nM; GI50 [8]: 100 nM; GI50 [9]: 60 nM; GI50 [10]: 70 nM; GI50 [12]: 60 nM; GI50 [17]: 100 nM; GI50 [18]: 30 nM; GI50 [19]: 70 nM
